From ChEMBL document CHEMBL5154900, “Design and Synthesis of Dual EZH2/BRD4 Inhibitors to Target Solid Tumors” (J Med Chem, 2022)
Active and inactive are the calls of the source. The rule behind the calls is not given here.

How the values were obtained:
[1] = biological target: T1, Histone-lysine N-methyltransferase EZH2 (Homo sapiens, UniProt Q15910)
Target sequence in this assay (Q15910 whole entry): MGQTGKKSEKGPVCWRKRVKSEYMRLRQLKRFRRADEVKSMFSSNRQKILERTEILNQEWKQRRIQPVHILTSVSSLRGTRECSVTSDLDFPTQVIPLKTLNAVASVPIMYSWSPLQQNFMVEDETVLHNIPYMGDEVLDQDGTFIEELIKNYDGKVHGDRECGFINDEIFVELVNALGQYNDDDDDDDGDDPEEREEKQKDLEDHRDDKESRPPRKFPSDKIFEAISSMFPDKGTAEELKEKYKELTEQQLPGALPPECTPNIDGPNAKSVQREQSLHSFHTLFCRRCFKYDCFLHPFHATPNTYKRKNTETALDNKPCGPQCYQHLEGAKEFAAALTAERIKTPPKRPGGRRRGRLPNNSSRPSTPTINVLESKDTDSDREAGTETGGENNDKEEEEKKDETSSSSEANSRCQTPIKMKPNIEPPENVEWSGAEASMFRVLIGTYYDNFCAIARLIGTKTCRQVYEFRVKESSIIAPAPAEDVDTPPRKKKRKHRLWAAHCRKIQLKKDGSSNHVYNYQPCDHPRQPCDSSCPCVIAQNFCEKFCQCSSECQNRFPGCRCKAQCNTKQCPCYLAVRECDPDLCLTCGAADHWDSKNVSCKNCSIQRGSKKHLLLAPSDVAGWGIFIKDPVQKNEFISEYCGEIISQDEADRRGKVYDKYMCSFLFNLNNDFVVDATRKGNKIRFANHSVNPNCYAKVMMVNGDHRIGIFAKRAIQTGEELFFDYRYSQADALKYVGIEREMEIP

[2] = system: ASPC1; assay: Antiproliferative activity against human ASPC1 cells assessed as cell growth inhibition incubated for 6 days by MTS assay; format: functional, cell-based; details: ASPC1, 144 h
[3] = biological target: T2, Bromodomain-containing protein 4 (Homo sapiens, UniProt O60885); assay: Inhibition of BRD4 in human ASPC1 cells assessed as decrease in c-Myc level at 1 uM incubated for 72 hrs by Western blot analysis; format: cell-based
[4] = biological target: T2, Bromodomain-containing protein 4; assay: Displacement of fluorescein-labeled JQ1 from His6/TEV cleavage site fused human BRD4 (residues N44 to E168) expressed in Escherichia coli BL21 (DE3) incubated for 60 min by Fluorescence polarization assay
[5] = biological target: T1, Histone-lysine N-methyltransferase EZH2; assay: Inhibition of EZH2 in human ASPC1 cells assessed as decrease in H3K27me3 levels at 1 uM incubated for 72 hrs by Western blot analysis; format: cell-based
Target sequence in this assay (Q15910 whole entry, looked up): as the sequence (Q15910 whole entry) above

[6] = system: HCT-116; assay: Induction of apoptosis in human HCT116 cells assessed as early apoptotic cells at 10 uM measured after 72 hrs by flow cytometry (reference value: 2.8 %); format: functional

| SMILES | IC50 [1] [nM] | IC50 ([2]; read-out: IC50) [nM] | inhibition [3] | IC50 [4] [nM] | inhibition [5] | Activity [6] [%] | IC50 [2] [nM] |
| --- | --- | --- | --- | --- | --- | --- | --- |
| CCN(c1cc(-c2ccc(OCCCNC(=O)C[C@@H]3N=C(c4ccc(Cl)cc4)c4c(sc(C)c4C)-n4c(C)nnc43)cc2)cc(C(=O)NCc2c(C)cc(C)[nH]c2=O)c1C)C1CCOCC1 | 980 | 1370 | Active | 1720 | – | – | – |
| CCN(c1cc(-c2ccc(CNC(=O)C[C@@H]3N=C(c4ccc(Cl)cc4)c4c(sc(C)c4C)-n4c(C)nnc43)cc2)cc(C(=O)NCc2c(C)cc(C)[nH]c2=O)c1C)C1CCOCC1 | 29800 | 6500 | – | 1480 | Active | – | – |
| CCN(c1cc(-c2ccc(OCCCCNC(=O)C[C@@H]3N=C(c4ccc(Cl)cc4)c4c(sc(C)c4C)-n4c(C)nnc43)cc2)cc(C(=O)NCc2c(C)cc(C)[nH]c2=O)c1C)C1CCOCC1 | 420 | 990 | Active | 82 | Active | – | – |
| CCN(c1cc(-c2ccc(NC(=O)CCCCCCNC(=O)C[C@@H]3N=C(c4ccc(Cl)cc4)c4c(sc(C)c4C)-n4c(C)nnc43)cc2)cc(C(=O)NCc2c(C)cc(C)[nH]c2=O)c1C)C1CCOCC1 | 530 | 11200 | – | 580 | – | – | – |
| CCN(c1cc(-c2ccc(OCCNC(=O)C[C@@H]3N=C(c4ccc(Cl)cc4)c4c(sc(C)c4C)-n4c(C)nnc43)cc2)cc(C(=O)NCc2c(C)cc(C)[nH]c2=O)c1C)C1CCOCC1 | 7550 | 1860 | Active | 1540 | – | – | – |
| CCN(c1cc(-c2ccc(NC(=O)CCOCCOCCOCCNC(=O)C[C@@H]3N=C(c4ccc(Cl)cc4)c4c(sc(C)c4C)-n4c(C)nnc43)cc2)cc(C(=O)NCc2c(C)cc(C)[nH]c2=O)c1C)C1CCOCC1 | 1040 | 9250 | – | 604 | – | – | – |
| CCN(c1cc(-c2ccc(CCNC(=O)C[C@@H]3N=C(c4ccc(Cl)cc4)c4c(sc(C)c4C)-n4c(C)nnc43)cc2)cc(C(=O)NCc2c(C)cc(C)[nH]c2=O)c1C)C1CCOCC1 | 77800 | 2610 | – | 945 | Active | – | – |
| CCN(c1cc(-c2ccc(C(=O)NCCOCCNC(=O)C[C@@H]3N=C(c4ccc(Cl)cc4)c4c(sc(C)c4C)-n4c(C)nnc43)cc2)cc(C(=O)NCc2c(C)cc(C)[nH]c2=O)c1C)C1CCOCC1 | 300 | 7090 | – | 248 | Active | – | – |
| CCN(c1cc(-c2ccc(NC(=O)CCCCCCCNC(=O)C[C@@H]3N=C(c4ccc(Cl)cc4)c4c(sc(C)c4C)-n4c(C)nnc43)cc2)cc(C(=O)NCc2c(C)cc(C)[nH]c2=O)c1C)C1CCOCC1 | 550 | 17500 | – | 2340 | – | – | – |
| CCN(c1cc(-c2ccc(NC(=O)C[C@@H]3N=C(c4ccc(Cl)cc4)c4c(sc(C)c4C)-n4c(C)nnc43)cc2)cc(C(=O)NCc2c(C)cc(C)[nH]c2=O)c1C)C1CCOCC1 | 16100 | 13800 | – | 2840 | – | – | – |
| CCN(c1cc(-c2ccc(CN3CCOCC3)cc2)cc(C(=O)NCc2c(C)cc(C)[nH]c2=O)c1C)C1CCOCC1 [TAZEMETOSTAT] | – | > 30000 | – | – | – | 2.8 | – |
| Cc1sc2c(c1C)C(c1ccc(Cl)cc1)=N[C@@H](CC(=O)OC(C)(C)C)c1nnc(C)n1-2 | – | – | – | – | – | 20.3 | 3390 |
